Data from US20220348572A1, “BRIDGED HETEROCYCLYL-SUBSTITUTED PYRIMIDINE COMPOUND, PREPARATION METHOD THEREFOR, AND PHARMACEUTICAL USE THEREOF” (The National Institutes of Pharmaceutical R&D Co., Ltd., priority 2019, published 2022).

Columns and labels:
[1] = molecular target: T1, JAK1 kinase (Homo sapiens, UniProt P23458); assay: In vitro inhibitory activity on JAK1 kinase (ADP-Glo Kinase Assay); assay type: biochemical; settings: JAK1 kinase 4 nM, 1 mM ATP
T1 construct: purchased Invitrogen PV4744
T1 sequence (P23458 866-1154 limits assumed): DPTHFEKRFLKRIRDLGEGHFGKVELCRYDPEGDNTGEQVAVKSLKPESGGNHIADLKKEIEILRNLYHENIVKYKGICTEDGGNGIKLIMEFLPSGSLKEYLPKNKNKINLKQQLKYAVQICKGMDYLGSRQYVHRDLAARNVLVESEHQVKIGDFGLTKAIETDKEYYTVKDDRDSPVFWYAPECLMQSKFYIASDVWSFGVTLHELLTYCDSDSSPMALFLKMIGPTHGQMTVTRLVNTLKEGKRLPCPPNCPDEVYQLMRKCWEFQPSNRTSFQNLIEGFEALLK
Summary of the method: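 JAK1 (4 nM final) preincubated with compound 15 min at 25° C., then substrate mix (1 mM ATP, IRS1 0.05 mg/ml) added for 60 min at 25° C. ADP-Glo luminescence read-out; top concentration 10 μM, 3-fold, 10 points, duplicates; IC50 reported in ranged classes.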

[2] = system: IFN-2α-stimulated TYK2/JAK1-mediated pathway (pSTAT3); assay: Inhibition of STAT3 signaling pathway of human whole blood (IFN-2α-induced pSTAT3, flow cytometry); assay type: cell-based
Protocol: Test Example 3: Inhibition Effect of the Compounds of the Present Invention on STAT3 Signaling Pathway of Human Whole Blood
Sample preparation: The compounds of the present invention and the control were dissolved in DMSO solvent respectively to formulate into 10 mM initial liquid. The maximum concentration of the compound was 10 μM, 3-fold dilution, 10 concentration gradients, and duplicate wells for each concentration gradient.
Experimental process: 20 μL of the compound of the present invention was added to a flow cytometer tube (BD, 352052) containing 180 μL anticoagulant sodium heparin. 20 μL PBS was added to the control. The sample was incubated at 37° C. for 30 min. 2 μL stimulating factor was added and then incubated at 37° C. for 20 min. 1 mL erythrocyte lysate was rapidly added, and the sample was repeatedly inverted 5-10 times or vortexed and then incubated at 37° C. for 10 min. The sample was centrifuged at 600 g for 6-8 min. The supernatant was discarded. The precipitate was vortexed until suspending. The cells were washed with 3 mL PBS and centrifuged at 600 g for 6-8 min. The supernatant was discarded. The precipitate was vortexed until suspending. 1 mL of membrane breaking solution was added, and the system was mixed gently, incubated on ice for 30 min, and centrifuged at 600 g for 6-8 min. The supernatant was discarded. The precipitate was vortexed until suspending. The cells were washed. 3 mL PBS was added. The system was centrifuged at 600 g for 6-8 min. The supernatant was discarded. The precipitate was vortexed untile suspending. The process was repeated twice. 100 μL PBS was added to each staining tube. IFN-2a was added for stimulation, and CD3 and pSTAT3 antibodies […] were added. The system was mixed well, protected from light and incubated at room temperature for 60 min. The cells were washed. 3 mL PBS was added. The system was centrifuged at 600 g for 6-8 min. The supernatant was discarded. The precipitate was vortexed until suspending. The precipitate was suspended in 150 μL in the dark for the flow cytometry analysis. The IC50 (half inhibitory concentration) of the compounds was obtained by using the following non-linear fitting equation:
Y=Bottom+(Top−Bottom)/(1+10^((Log IC50−X)*HillSlope));
X: Log value of the concentration of the compound;
Bottom: The minimum value, Top: The maximum value, HillSlope: Slope
The inhibition effect of by the compounds of the present invention on the IFN-2α-stimulated TYK2/JAK1-mediated pathway is shown in Table 3. IC50 value of 0-100 nM is shown as A, IC50 value of 100-300 nM is shown as B, IC50 value of 300-1000 nM is shown as C, IC50 value which is greater than 1000 nM is shown as D. NT means not tested.

[3] = Pharmacokinetic study in rats after oral administration; assay type: in vivo, SD rats
Protocol: Experimental Example 5: Pharmacokinetic Studies of the Compounds of Example 1, Example 1-a, Example 1-b and Example 3 in Rats In order to investigate the blood concentration and pharmacokinetic parameters of the compounds of the present invention after oral administration, the corresponding LC/MS/MS assay and plasma treatment methods were developed for the compounds of the Experimental Examples. […] Male SD rats were orally administered at a dose of 5 mg/kg. Blood was orbitally collected and anticoagulated with sodium heparin. The plasma was deproteinated with acetonitrile. The samples were analyzed by LC/MS/MS method. Wherein, AUC<1000 μg/L*h is shown as C, AUC between 1000-2000 μg/L*h is shown as B, AUC>2000 μg/L*h is shown as A; Cmax<600 μg/L is shown as C, Cmax between 600-900 μg/L is shown as B, and Cmax>900 μg/L is shown as A.

[4] = molecular target: T2, TYK2 kinase (Homo sapiens, UniProt P29597); assay: In vitro inhibitory activity on Tyk2 kinase (ADP-Glo Kinase Assay); assay type: biochemical; settings: TYK2 kinase 4 nM, 1 mM ATP
T2 sequence (P29597 897-1187 limits assumed): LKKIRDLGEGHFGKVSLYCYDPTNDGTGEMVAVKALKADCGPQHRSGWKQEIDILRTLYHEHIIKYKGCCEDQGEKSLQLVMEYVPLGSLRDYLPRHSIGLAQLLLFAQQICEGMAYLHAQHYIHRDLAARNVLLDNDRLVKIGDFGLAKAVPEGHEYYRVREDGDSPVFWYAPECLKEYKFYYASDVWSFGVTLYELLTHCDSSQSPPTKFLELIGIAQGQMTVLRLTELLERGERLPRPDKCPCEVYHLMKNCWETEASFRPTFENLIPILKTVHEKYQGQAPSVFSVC
Protocol: Test Example 2: Determination of In Vitro Inhibitory Activity of the Compounds of the Present Invention on Tyk2 Kinase Experimental materials: TYK2 (Invitrogen, PV4790), ATP (Promega, V915B), ADP-Glo Kinase Assay (Promega, V9101), IRS1 (Signalchem, 140-58-1000). Sample preparation: The compounds of the present invention and the control product were dissolved in DMSO solvent respectively to formulate into 10 mM initial liquid. The maximum concentration of the compound was 10 μM, 3-fold dilution, 10 concentration gradients, and duplicate wells for each concentration gradient. Experimental process: 0.1 μL of the compound to be tested was transferred into a 384 reaction plate (PE, 6007290) via Echo and centrifuged at 1000 rpm/min for 1 min. 5 μL TYK2 kinase (final concentration of 4 nM) was transferred into the 384 reaction plate, which was then centrifuged at 1000 rpm/min for 1 min, and incubated at 25° C. for 15 min. 5 μL substrate mixture (1 mM ATP, IRS1 0.05 mg/ml, kinase buffer solution) was transferred into the 384 reaction plate, which was then centrifuged at 1000 rpm/min for 1 min, and incubated at 25° C. for 60 min. 10 μL ADP-Glo was transferred into the 384 reaction plate, which was then centrifuged at 1000 rpm/min for 1 min, and incubated at 25° C. for 40 min. 20 μL test solution was transferred into the 384 reaction plate, which was centrifuged at 1000 rpm/min for 1 min and incubated at 25° C. for 40 min. RLU (Relative luminescence unit) signal was read by using an Envision multifunctional plate reader. The signal intensity was used to characterize the degree of the kinase activity. […] IC50 value of 0-100 nM is shown as A, IC50 value of 100-300 nM is shown as B, IC50 value of 300-1000 nM is shown as C, and IC50 value which is greater than 1000 nM is shown as D. NT means not tested.

[5] = rat, male SD rats, oral 5 mg/kg, plasma

Which results are given for `Cn1cc(Nc2nccc(C3=C[C@@H]4CC[C@H](C3)N4C(=O)[C@@H]3CC3(F)F)n2)cn1` (single isomer, unassigned) [Compound 1-a]?
IC50 [1]: < 100 nM; IC50 [2]: < 100 nM; pharmacokinetic parameters (in words) ([3]; oral administration in SD rats): good pharmacokinetic parameters; AUC(0-t) [3, 5]: 1000 to 2000 ng·h/mL; Cmax [3, 5]: 600 to 900 ng/mL; IC50 [4]: < 100 nM
